Values quoted from earlier work, collected in patent US20260240758A1, “INJECTABLE PHENYLEPHRINE COMPOSITIONS” (Hikma Pharmaceuticals USA Inc., priority 2022, published 2026).

Settings: phenylephrine HCl 400 μg/ml and 200 μg/ml, PVC bags, 60 days at room temperature

For `CNC[C@H](O)c1cccc(O)c1` [phenylephrine], the phenylephrine degraded is given as 4-5%.
